Measured values reported in PubChem BioAssay (NCI).
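Five concentrations, 48 hours, 96-well plates. TGI denotes the concentration required for complete inhibition of growth.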

What was measured:
Assay in all cases: NCI-60 cell line screen, 48 h
COLO 205 colon = test system: COLO 205 colon
EKVX NSCLC = test system: EKVX NSCLC
HCT-15 colon = test system: HCT-15 colon
MCF7 breast = test system: MCF7 breast
NCI/ADR-RES ovarian = test system: NCI/ADR-RES ovarian
SF-295 CNS = test system: SF-295 CNS
SK-MEL-28 melanoma = test system: SK-MEL-28 melanoma
SK-MEL-5 melanoma = test system: SK-MEL-5 melanoma
SR leukemia = test system: SR leukemia
TK-10 renal = test system: TK-10 renal

SMILES | TGI (COLO 205 colon) [µM] | TGI (EKVX NSCLC) [µM] | TGI (HCT-15 colon) [µM] | TGI (MCF7 breast) [µM] | TGI (NCI/ADR-RES ovarian) [µM] | TGI (SF-295 CNS) [µM] | TGI (SK-MEL-28 melanoma) [µM] | TGI (SK-MEL-5 melanoma) [µM] | TGI (SR leukemia) [µM] | TGI (TK-10 renal) [µM]
CCCCC1=C(C(=O)N2CCOCC2)C2(OCCO2)C1=O | 40.2 | > 100 | 40.3 | > 100 | 57.2 | > 100 | 94.8 | 33.2 | > 100 | > 100
C/C=C(/C)C(=O)OC1CC(C)[C@H]2CC(=O)C(C)=C2CC1C(C)(C)OC(C)=O (stereo not given in full) | 43.8 | > 100 | > 100 | > 100 | 71.7 | > 100 | > 100 | 29.7 | 78.9 | > 100
CC(C)C(=O)C(C)(C)CCc1ccccn1 | > 100 | > 100 | > 100 | > 100 | > 100 | > 100 | > 100 | > 100 | > 100 | > 100
CS(=O)(=O)Nc1ccc2c(c1)N(S(C)(=O)=O)CC2CCl (stereo not given) | > 100 | > 100 | > 100 | > 100 | > 100 | > 100 | > 100 | > 100 | > 100 | > 100
Cc1ccc2c(c1)-c1c(C#N)c(N)nc(-c3ccc(Cl)cc3)c1CCS2(=O)=O | 31.3 | > 100 | > 100 | > 100 | 98.2 | > 100 | > 100 | > 68 | 6.18 | > 100
CSC(SC)=C(C(=O)O)P(=O)(O)O | > 100 | > 100 | > 100 | > 100 | > 100 | > 100 | > 100 | > 100 | > 100 | > 100
COc1cccc2c1C(=O)c1c(O)c3c(c(O)c1C2=O)C[C@H](O)C[C@@H]3OC1CC(N)C(O)C(C)O1 (stereo not given in full) | 10.3 | 20.8 | 58 | 21.2 | 62.3 | 7.35 | 9.13 | 2.22 | 0.229 | 7.15
O=C(OCCN=c1c2ccccc2ccc2ccccc12)c1ccccc1 | > 100 | > 100 | > 100 | > 100 | > 100 | > 100 | > 100 | > 100 | > 100 | > 100
Cc1[nH]c(=O)nc(NCCNCCO)c1C(=O)Nc1cccc2cc3ccccc3cc12 | > 100 | > 100 | > 100 | > 44 | > 100 | > 100 | > 100 | > 100 | > 100 | > 100
COc1cc(C(c2c(O)c3ccccc3oc2=O)c2c(O)c3ccccc3oc2=O)cc(Br)c1O | 32 | 34.2 | 36.4 | 31.3 | 53.1 | 40.3 | 59.2 | 29.8 | 58.3 | 30.6
O=c1[nH]c2nc3ccccc3nc2[nH]c1=O | > 100 | > 100 | > 100 | > 100 | > 100 | > 100 | > 100 | > 100 | > 100 | > 100
N#C/C(=C/n1c(=S)[nH]c2ccc([N+](=O)[O-])cc21)C(N)=O | > 100 | > 100 | > 100 | > 100 | > 100 | > 100 | > 100 | > 100 | > 100 | > 100
CCC(CO)Nc1nc(NCc2ccccc2)c2ncn(C(C)C)c2n1 (stereo not given) | 34.1 | 49.5 | > 100 | > 57.3 | 42.3 | 50.9 | 34.4 | > 51.8 | 19 | > 84.6
COc1ccc(/C=c2\s/c(=C3/SC(=S)N(c4ccccc4)C3=O)n(-c3ccccc3)c2=O)cc1 | > 100 | > 100 | > 100 | > 100 | > 100 | > 100 | > 100 | > 100 | 31.8 | 59.2
COC(=O)C1(CCCCCBr)CCCCCCCCCCC1=O (stereo not given) | > 100 | > 100 | > 100 | 42.2 | > 100 | > 100 | 92.2 | 35.1 | 55.7 | > 100
CO[C@H]1SC[C@H](OC(C)=O)[C@H](OC(C)=O)[C@H]1OC(C)=O | > 100 | > 100 | > 100 | > 100 | > 100 | > 100 | > 100 | > 100 | > 100 | > 100
COc1ccc(Nc2nc(N)c(C(=O)c3c[nH]c4ccccc34)s2)cc1 | 4.06 | > 100 | 8.91 | 18.8 | 19.4 | > 100 | > 91.6 | 14.4 | 0.796 | > 30.7
O=S(=O)(c1cc(Cl)ccc1Cl)n1ccnc1 | 34.1 | > 100 | 89.5 | > 100 | 45.7 | > 100 | > 100 | 53.9 | 70.9 | > 100
